Laboratory results reported in patent publication US11071300B2, “Pesticidally active pyrazole derivatives” (SYNGENTA PARTICIPATIONS AG, priority 2017, dated 2021).
Where two headings read alike, the source gives them in different places.

Legend:
Type in all cases: in vivo
Spodoptera littoralis = Spodoptera littoralis (Egyptian cotton leaf worm) leaf disc test; conditions: foliar, 72 h, application rate 200 ppm, cotton leaf discs sprayed, L1 larvae, 3 days after infestation, read-out: control (at least one of mortality, anti-feedant effect, growth inhibition)
Procedure, shortened: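 Cotton leaf discs on agar were sprayed with aqueous dilutions of 10′000 ppm DMSO stocks, dried and infested with five L1 larvae. Mortality, anti-feedant effect and growth inhibition were scored against untreated samples 3 days after infestation. Control = any of these higher than untreated.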

Plutella xylostella = Plutella xylostella (diamond back moth) artificial diet test; conditions: 120 h, read-out: control (mortality and growth inhibition)
Experimental: Plutella xylostella (Diamond Back Moth):
24-well microtiter plates with artificial diet were treated with aqueous test solutions prepared from 10′000 ppm DMSO stock solutions by pipetting. After drying, the plates were infested with L2 larvae (10 to 15 per well). The samples were assessed for mortality and growth inhibition in comparison to untreated samples 5 days after infestation.

Diabrotica Balteata = assay: Diabrotica balteata (corn root worm) maize sprout test; conditions: 96 h, read-out: control (mortality and growth inhibition)
Experimental: Diabrotica Balteata, (Corn Root Worm)
Maize sprouts, placed on an agar layer in 24-well microtiter plates were treated with aqueous test solutions prepared from 10′000 ppm DMSO stock solutions by spraying. After drying, the plates were infested with L2 larvae (6 to 10 per well). The samples were assessed for mortality and growth inhibition in comparison to untreated samples 4 days after infestation.

Thrips tabaci = Thrips tabaci (onion thrips) leaf disc test; conditions: foliar, 144 h, read-out: control (mortality)
Experimental: Thrips tabaci (Onion Thrips):
Sunflower leaf discs were placed on agar in 24-well microtiter plates and sprayed with aqueous test solutions prepared from 10′000 ppm DMSO stock solutions. After drying the leaf discs were infested with a thrips population of mixed ages. The samples were assessed for mortality 6 days after infestation.

Tetranychus urticae = Tetranychus urticae (two-spotted spider mite) leaf disc test; conditions: foliar, 192 h, read-out: control (mortality on mixed population, mobile stages)
Experimental: Tetranychus urticae (Two-Spotted Spider Mite):
Bean leaf discs on agar in 24-well microtiter plates were sprayed with aqueous test solutions prepared from 10′000 ppm DMSO stock solutions. After drying the leaf discs were infested with a mite population of mixed ages. The samples were assessed for mortality on mixed population (mobile stages) 8 days after infestation.

Euschistus heros = Euschistus heros (neotropical brown stink bug) soybean leaf test; conditions: 120 h, read-out: control (mortality and growth inhibition)
Experimental: Euschistus heros (Neotropical Brown Stink Bug):
Soybean leaves on agar in 24-well microtiter plates were sprayed with aqueous test solutions prepared from 10′000 ppm DMSO stock solutions. After drying the leaves were infested with N2 nymphs. The samples were assessed for mortality and growth inhibition in comparison to untreated samples 5 days after infestation.

Myzus persicae = Myzus persicae (green peach aphid) leaf disc test; conditions: foliar, 144 h, read-out: control (mortality)
Experimental: Myzus persicae (Green Peach Aphid):
Sunflower leaf discs were placed on agar in a 24-well microtiter plate and sprayed with test solutions at an application rate of 200 ppm. After drying, the leaf discs were infested with an aphid population of mixed ages. After an incubation period of 6 DAT, samples were checked for mortality.

[1] = application rate 200 ppm, artificial diet, L2 larvae, 5 days after infestation
[2] = application rate 200 ppm, maize sprouts sprayed, L2 larvae, 4 days after infestation
[3] = application rate 200 ppm, sunflower leaf discs sprayed, mixed ages, 6 days after infestation
[4] = application rate 200 ppm, bean leaf discs sprayed, 8 days after infestation
[5] = application rate 200 ppm, soybean leaves sprayed, N2 nymphs, 5 days after infestation
[6] = application rate 200 ppm, sunflower leaf discs sprayed, mixed ages, 6 DAT

CCOC(=O)N(C(=O)c1cc(-c2cnn(-c3c(C(F)(F)F)c(OS(=O)(=O)C(F)(C(F)(F)F)C(F)(F)F)nn3C)c2)ccc1Cl)C1(C#N)CC1 [Compound 51, [5-[4-[4-chloro-3-[(1-cyanocyclopropyl)-ethoxycarbonyl-carbamoyl]phenyl]pyrazol-1-yl]-1-methyl-4-(trifluoromethyl)pyrazol-3-yl] 1,1,1,2,3,3,3-heptafluoropropane-2-sulfonate]
≥ 80%: percent control (mortality, anti-feedant effect or growth inhibition) at 200 ppm (Spodoptera littoralis) | mortality at 200 ppm (Plutella xylostella) | mortality at 200 ppm (Diabrotica Balteata) | mortality at 200 ppm (Thrips tabaci) | mortality at 200 ppm (Tetranychus urticae) | mortality at 200 ppm (Euschistus heros) | mortality at 200 ppm (Myzus persicae)

COC(=O)N(C(=O)c1cc(-c2cnn(-c3c(C(F)(F)F)c(OS(=O)(=O)C(F)(C(F)(F)F)C(F)(F)F)nn3C)c2)ccc1Cl)C1(C#N)CC1 [Compound 52, [5-[4-[4-chloro-3-[(1-cyanocyclopropyl)-methoxycarbonyl-carbamoyl]phenyl]pyrazol-1-yl]-1-methyl-4-(trifluoromethyl)pyrazol-3-yl] 1,1,1,2,3,3,3-heptafluoropropane-2-sulfonate]
≥ 80%: percent control (mortality, anti-feedant effect or growth inhibition) at 200 ppm (Spodoptera littoralis) | mortality at 200 ppm (Plutella xylostella) | mortality at 200 ppm (Diabrotica Balteata) | mortality at 200 ppm (Thrips tabaci) | mortality at 200 ppm (Tetranychus urticae) | mortality at 200 ppm (Euschistus heros) | mortality at 200 ppm (Myzus persicae)

CCC(=O)N(C(=O)c1cc(-c2cnn(-c3c(C(F)(F)F)c(OS(=O)(=O)C(F)(C(F)(F)F)C(F)(F)F)nn3C)c2)ccc1Cl)C1(C#N)CC1 [Compound 54, [5-[4-[4-chloro-3-[(1-cyanocyclopropyl)-propanoyl-carbamoyl]phenyl]pyrazol-1-yl]-1-methyl-4-(trifluoromethyl)pyrazol-3-yl] 1,1,1,2,3,3,3-heptafluoropropane-2-sulfonate]
≥ 80%: percent control (mortality, anti-feedant effect or growth inhibition) at 200 ppm (Spodoptera littoralis) | mortality at 200 ppm (Plutella xylostella; [1]) | mortality at 200 ppm (Diabrotica Balteata; [2]) | mortality at 200 ppm (Thrips tabaci; [3]) | mortality at 200 ppm (Tetranychus urticae; [4]) | mortality at 200 ppm (Euschistus heros; [5]) | mortality at 200 ppm (Myzus persicae; [6])

Cn1nc(OS(=O)(=O)C(F)(C(F)(F)F)C(F)(F)F)c(C(F)(F)F)c1-n1cc(-c2ccc(Cl)c(C(=O)N(C=O)C3(C#N)CC3)c2)cn1 [Compound 57, [5-[4-[4-chloro-3-[(1-cyanocyclopropyl)-formyl-carbamoyl]phenyl]pyrazol-1-yl]-1-methyl-4-(trifluoromethyl)pyrazol-3-yl] 1,1,1,2,3,3,3-heptafluoropropane-2-sulfonate]
≥ 80%: percent control (mortality, anti-feedant effect or growth inhibition) at 200 ppm (Spodoptera littoralis) | mortality at 200 ppm (Plutella xylostella; [1]) | mortality at 200 ppm (Diabrotica Balteata; [2]) | mortality at 200 ppm (Thrips tabaci; [3]) | mortality at 200 ppm (Tetranychus urticae; [4]) | mortality at 200 ppm (Euschistus heros; [5]) | mortality at 200 ppm (Myzus persicae; [6])

Cn1nc(OS(=O)(=O)C(F)(C(F)(F)F)C(F)(F)F)c(C(F)(F)F)c1-n1cc(-c2ccc(Cl)c(C(=O)N(C(=O)C(C)(C)C)C3(C#N)CC3)c2)cn1 [Compound 59, [5-[4-[4-chloro-3-[(1-cyanocyclopropyl)-(2,2-dimethylpropanoyl)carbamoyl]phenyl]pyrazol-1-yl]-1-methyl-4-(trifluoromethyl)pyrazol-3-yl] 1,1,1,2,3,3,3-heptafluoropropane-2-sulfonate]
≥ 80%: percent control (mortality, anti-feedant effect or growth inhibition) at 200 ppm (Spodoptera littoralis) | mortality at 200 ppm (Plutella xylostella; [1]) | mortality at 200 ppm (Diabrotica Balteata; [2]) | mortality at 200 ppm (Thrips tabaci; [3]) | mortality at 200 ppm (Tetranychus urticae; [4]) | mortality at 200 ppm (Euschistus heros; [5]) | mortality at 200 ppm (Myzus persicae; [6])

CC(C)C(=O)N(C(=O)c1cc(-c2cnn(-c3c(C(F)(F)F)c(OS(=O)(=O)C(F)(C(F)(F)F)C(F)(F)F)nn3C)c2)ccc1Cl)C1(C#N)CC1 [Compound 60, [5-[4-[4-chloro-3-[(1-cyanocyclopropyl)-(2-methylpropanoyl)carbamoyl]phenyl]pyrazol-1-yl]-1-methyl-4-(trifluoromethyl)pyrazol-3-yl] 1,1,1,2,3,3,3-heptafluoropropane-2-sulfonate]
≥ 80%: percent control (mortality, anti-feedant effect or growth inhibition) at 200 ppm (Spodoptera littoralis) | mortality at 200 ppm (Plutella xylostella; [1]) | mortality at 200 ppm (Diabrotica Balteata; [2]) | mortality at 200 ppm (Thrips tabaci; [3]) | mortality at 200 ppm (Tetranychus urticae; [4]) | mortality at 200 ppm (Euschistus heros; [5]) | mortality at 200 ppm (Myzus persicae; [6])

COCC(=O)N(C(=O)c1cc(-c2cnn(-c3c(C(F)(F)F)c(OS(=O)(=O)C(F)(C(F)(F)F)C(F)(F)F)nn3C)c2)ccc1Cl)C1(C#N)CC1 [Compound 62, [5-[4-[4-chloro-3-[(1-cyanocyclopropyl)-(2-methoxyacetyl)carbamoyl]phenyl]pyrazol-1-yl]-1-methyl-4-(trifluoromethyl)pyrazol-3-yl] 1,1,1,2,3,3,3-heptafluoropropane-2-sulfonate]
≥ 80%: percent control (mortality, anti-feedant effect or growth inhibition) at 200 ppm (Spodoptera littoralis) | mortality at 200 ppm (Plutella xylostella; [1]) | mortality at 200 ppm (Diabrotica Balteata; [2]) | mortality at 200 ppm (Thrips tabaci; [3]) | mortality at 200 ppm (Tetranychus urticae; [4]) | mortality at 200 ppm (Euschistus heros; [5]) | mortality at 200 ppm (Myzus persicae; [6])
